Reference: ChEMBL document CHEMBL2086285, “Targeting the liver stage of malaria parasites: a yet unmet goal” (J Med Chem, 2012)

Tests used:
Plasmodium berghei [1] = experiment: Antimalarial activity against liver stages of Plasmodium berghei in human HepG2 cells assessed as growth inhibition at 10 ug/mL; type: functional; settings: read-out: GI
Plasmodium cynomolgi = experiment: Antimalarial activity against Plasmodium cynomolgi M infected in rhesus monkey administered as po qd for 7 days; type: functional; settings: in Macaca mulatta, 168 h
Plasmodium yoelii [2] = experiment: Antimalarial activity against liver stages of Plasmodium yoelii after 96 hrs; type: functional, organism-based; settings: Plasmodium yoelii, 96 h
Plasmodium falciparum [3] = experiment: Antimalarial activity against liver stages of Plasmodium falciparum after 96 hrs; type: functional, organism-based
Plasmodium berghei [4] = experiment: Antimalarial activity against liver stages of Plasmodium berghei; type: functional, organism-based
Plasmodium berghei [5] = experiment: Antimalarial activity against liver stages of Plasmodium berghei assessed as inhibition of cytochrome bc1 complex; type: functional, organism-based
Plasmodium vivax = experiment: Antimalarial activity against Plasmodium vivax assessed as effect on cure rate after 28 days; type: functional
Plasmodium yoelii [6] = experiment: Antimalarial activity against Plasmodium yoelii infected in mouse assessed as protection against parasitic infection at 160 mg/kg, po; type: functional
Plasmodium yoelii [7] = experiment: Antimalarial activity against Plasmodium yoelii infected in CD-1 mouse assessed as efficacy at 160 mg/kg, ip; type: functional; settings: route intraperitoneal
Plasmodium yoelii [8] = experiment: Antimalarial activity against Plasmodium yoelii infected in CD-1 mouse assessed as efficacy at 40 mg/kg, po after 2 hrs; type: functional
Plasmodium yoelii [9] = experiment: Antimalarial activity against Plasmodium yoelii infected in CD-1 mouse assessed as efficacy at 40 mg/kg, ip; type: functional; settings: route intraperitoneal
Plasmodium yoelii [10] = experiment: Antimalarial activity against Plasmodium yoelii infected in CD-1 mouse assessed as efficacy at 160 mg/kg, po after 2 hrs; type: functional
Plasmodium yoelii [11] = experiment: Antimalarial activity against liver stages of Plasmodium yoelii 265 BY infected in Swiss mouse after 48 hrs by fluorescence microscopy; type: functional, organism-based
Plasmodium yoelii yoelii = experiment: Antimalarial activity against liver stages of Plasmodium yoelii yoelii; type: functional, organism-based
Plasmodium falciparum [12] = experiment: Antimalarial activity against liver stages of Plasmodium falciparum NF54 infected in human HepG2 cells after 6 days by fluorescence microscopy; type: functional, organism-based; settings: NF54, HepG2, 144 h
[13] = Plasmodium yoelii, 265 BY, 48 h

COc1c2c(cc(O)c1-c1c(C)cc(OC)c3c(OC)cccc13)C[C@@H](C)N=C2C [ANCISTROBARTERINE A]
inhibition of growth at 10 µg/mL (Plasmodium berghei [1]): 51.6%

COc1cc(NC(C)CCCCNC(C)C)c2nccc(C)c2c1 (stereo not drawn)
ED50 (Plasmodium cynomolgi): 0.35 mg/kg

COc1cc(NC(C)CCCN)c2ncccc2c1Oc1cccc(C(F)(F)F)c1 (stereo not drawn)
ED50 (Plasmodium cynomolgi): 0.25 mg/kg

C[C@]1(C(=O)O)CSC(c2ncccc2O)=N1 [DESFERRITHIOCIN]
IC50 (Plasmodium yoelii [2]): 10 µM | IC50 (Plasmodium falciparum [3]): 2.9 µM

COc1cc(NC(C)CCCN)c2ncccc2c1 (stereo not drawn) [PRIMAQUINE]
ED50 (Plasmodium cynomolgi): 0.38 mg/kg | IC50 (Plasmodium berghei [4]): 13 µM

C[C@H](CCCCCC(F)(F)F)CC1=C(O)C(=O)c2ccccc2C1=O
IC50 (Plasmodium berghei [5]): 0.0171 µM

COc1cc(NCCCCC(C)N)c2nccc(C)c2c1 (stereo not drawn)
ED50 (Plasmodium cynomolgi): 0.12 mg/kg

CCC[C@@H]1C[C@@H](C(=O)N[C@@H]([C@H]2O[C@H](SC)[C@H](O)[C@@H](O)[C@H]2O)[C@H](C)Cl)N(C)C1 [CLINDAMYCIN]
Activity (Plasmodium vivax): 56%

COc1cc(NC(C)CCCN)c2nc(C)ccc2c1Oc1ccc(Cl)cc1 (stereo not drawn)
ED50 (Plasmodium cynomolgi): 0.19 mg/kg

COc1cc(NC(C)CCCN)c2nc(N)ccc2c1 (stereo not drawn)
ED50 (Plasmodium cynomolgi): 0.36 mg/kg

CC(=O)N(O)CCCCCNC(=O)CCC(=O)N(O)CCCCCNC(=O)CCC(=O)N(O)CCCCCN [DEFEROXAMINE]
IC50 (Plasmodium yoelii [2]): 20 µM | IC50 (Plasmodium falciparum [3]): 3.4 µM

COc1cc(NC(C)CCCNC(C)C)c2nccc(C)c2c1 (stereo not drawn)
ED50 (Plasmodium cynomolgi): 0.32 mg/kg

CCN(CC)CCCCC(C)Nc1cc(OC)cc2c(C)ccnc12 (stereo not drawn)
ED50 (Plasmodium cynomolgi): 0.23 mg/kg

CC(C)N1C(=O)C(=O)N=C1N/C(=N\C(=O)OC(C)(C)C)Nc1ccc(Cl)c(Cl)c1
Activity (Plasmodium yoelii [6]): 100%

Cc1cccc2c1C(=O)C(O)=C(C[C@H](C)CCCCCC(F)(F)F)C2=O
IC50 (Plasmodium berghei [5]): 4.45 µM

CCN(CC)CCCNc1cc(OC)cc2c(C)cc(C)nc12
ED50 (Plasmodium cynomolgi): 0.36 mg/kg

CCC(N)CCCNc1cc(OC)cc2c(C)ccnc12 (stereo not drawn)
ED50 (Plasmodium cynomolgi): 0.48 mg/kg

CC[C@H]1OC(=O)[C@H](C)[C@@H](O[C@H]2C[C@@](C)(OC)[C@@H](O)[C@H](C)O2)[C@H](C)[C@@H](O[C@@H]2O[C@H](C)C[C@H](N(C)C)[C@H]2O)[C@](C)(O)C[C@@H](C)CN(C)[C@H](C)[C@@H](O)[C@]1(C)O [AZITHROMYCIN]
Efficacy (Plasmodium yoelii [7]): 100% | Efficacy (Plasmodium yoelii [8]): 40% | Efficacy (Plasmodium yoelii [9]): 80% | Efficacy (Plasmodium yoelii [10]): 100% | Activity (Plasmodium vivax): 58%

COc1cc([C@H](O)[C@@H](C)Oc2c(OC)cccc2OC)cc(OC)c1OC
IC50 (Plasmodium yoelii [11]; [13]): 2.52 µM

COc1cc(NC(C)CCCN)c2nccc(C)c2c1F (stereo not drawn)
ED50 (Plasmodium cynomolgi): 0.36 mg/kg

C[C@H]1c2cccc(O)c2C(=O)C2=C(O)[C@]3(O)C(=O)C(C(N)=O)=C(O)[C@@H](N(C)C)[C@@H]3[C@@H](O)[C@@H]21.O [DOXYCYCLINE]
Efficacy (Plasmodium yoelii [7]): 100% | Efficacy (Plasmodium yoelii [9]): 40% | Activity (Plasmodium vivax): 56%

C=CC(C)(C)c1cc(/C=C/C(=O)c2ccc(O)cc2)c(OC)cc1O [LICOAGROCHACONE A]
IC50 (Plasmodium yoelii yoelii): 0.000927 µM

COc1cc(NC(C)CCCN)c2nc(C)ccc2c1 (stereo not drawn)
ED50 (Plasmodium cynomolgi): 0.38 mg/kg

COc1cc(NC(C)CCCN)c2nc(OCc3ccc(C(F)(F)F)cc3)ccc2c1 (stereo not drawn)
ED50 (Plasmodium cynomolgi): 0.5 mg/kg

COc1cc(NC(C)CCCN)c2ncccc2c1OC (stereo not drawn)
ED50 (Plasmodium cynomolgi): 0.44 mg/kg

COc1cc(C)cc(OC)c1OC(C)[C@@H](O)c1ccc2c(c1)OC(F)(F)O2 (mixture of isomers; 145)
IC50 (Plasmodium yoelii [11]): 19 µM

COc1c(C)nc(C)c2c(OC)c(-c3c(C)cc(OC)c4c(OC)cccc34)ccc12 [DIONCOPHYLLACINE A]
inhibition of growth at 10 µg/mL (Plasmodium berghei [1]): 41.9%

CC(C)Nc1cccnc1N1CCN(C(=O)c2cc3cc(NS(C)(=O)=O)ccc3[nH]2)CC1 [DELAVIRDINE]
IC50 (Plasmodium yoelii yoelii): 0.000846 µM

COc1cccc2c(-c3ccc4c(c3O)[C@@H](C)N[C@H](C)C4)c(C)cc(OC)c12 [DIONCOPHYLLINE A]
inhibition of growth at 10 µg/mL (Plasmodium berghei [1]): 67.5%

COc1cc(NC(C)CCCN)c2nccc(C)c2c1 (stereo not drawn)
ED50 (Plasmodium cynomolgi): 0.2 mg/kg

CN(C)[C@@H]1C(O)=C(C(N)=O)C(=O)[C@@]2(O)C(O)=C3C(=O)c4c(O)cccc4[C@@](C)(O)[C@H]3C[C@@H]12 [TETRACYCLINE]
Activity (Plasmodium vivax): 56%

COc1cc(NC(C)CCCN)c2ncccc2c1Oc1ccc(F)cc1 (stereo not drawn)
ED50 (Plasmodium cynomolgi): 0.23 mg/kg

COc1cc(NCCC(C)N)c2nccc(C)c2c1OC (stereo not drawn)
ED50 (Plasmodium cynomolgi): 0.12 mg/kg

COc1cc([C@H](O)[C@H](C)Oc2c(OC)cc(-c3ccccc3)cc2OC)cc(OC)c1OC
IC50 (Plasmodium falciparum [12]): 0.02 µM | IC50 (Plasmodium yoelii [11]; [13]): 3.54 µM

COc1ccc(-c2c(C)cc(OC)c3c(O)cccc23)c2c1[C@@H](C)N(C=O)[C@H](C)C2
inhibition of growth at 10 µg/mL (Plasmodium berghei [1]): 98.3%

COc1cccc(OC)c1OC(C)[C@@H](O)c1ccc2c(c1)OC(F)(F)O2 (mixture of isomers; 143)
IC50 (Plasmodium yoelii [11]; [13]): 20.1 µM

COc1cc(NC(C)CCCN)c2nc(C)ccc2c1F (stereo not drawn)
ED50 (Plasmodium cynomolgi): 0.21 mg/kg

COc1cc(C)cc(OC)c1OC(C)[C@@H](O)c1ccc2c(c1)OC(F)(F)O2 (mixture of isomers; 146)
IC50 (Plasmodium yoelii [11]): 5.62 µM
